Among the test systems are A498 renal; A549 NSCLC; COLO 205 colon; HOP-62 NSCLC; HT29 colon; MCF7 breast; MDA-MB-435; MOLT-4 leukemia; NCI-H460 lung; NCI-H522 lung; OVCAR-8 ovarian; PC-3 prostate; SF-268 CNS; SW-620 colon; TK-10 renal; HL-60(TB) leukemia; HOP-92 NSCLC.
Holding throughout (assay): inhibition of tumour cell growth, NCI panel, 48 h

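96-well plates; 48 h exposure; 5 concentrations. Endpoints by linear interpolation between flanking doses. Not reached: highest tested concentration assigned. TGI: total growth inhibition.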

`C[C@]12CC[C@H](O)CC1=CC[C@@H]1[C@@H]2CC[C@]2(C)NC(=O)/C(=C\c3ccccc3)C[C@@H]12`: the TGI was 29.2 µM in the assay with A498 renal; 33.4 µM in the assay with A549 NSCLC; 31.9 µM with COLO 205 colon; 29 µM with HOP-62 NSCLC; 31.5 µM with HT29 colon; 47.3 µM in the assay on MCF7 breast. Besides, the TGI came to 37.8 µM in the assay on MDA-MB-435; 98.5 µM with MOLT-4 leukemia; 68.9 µM with NCI-H460 lung; 23.1 µM with NCI-H522 lung; 47.6 µM in the assay on OVCAR-8 ovarian; 29.5 µM in the assay with PC-3 prostate. Further, the TGI in the assay with SF-268 CNS was determined as 30.7 µM; with SW-620 colon it was 34.6 µM; in the assay on TK-10 renal it was 83.2 µM.
As for `O=C1c2ccccc2C(=O)c2sc(Nc3ccc([N+](=O)[O-])cc3)nc21`, the TGI in the assay on A498 renal was 34.8 µM; with A549 NSCLC it was 41.7 µM; with COLO 205 colon, 19 µM; in the assay on HL-60(TB) leukemia, 2.52 µM; in the assay on HOP-62 NSCLC, 27.1 µM; in the assay on HOP-92 NSCLC, 28.6 µM. The TGI with HT29 colon was 57.7 µM; in the assay on MCF7 breast, 31 µM; in the assay with MOLT-4 leukemia, 7.17 µM; in the assay on NCI-H460 lung it was 34.4 µM; in the assay on NCI-H522 lung, 6.35 µM; in the assay with OVCAR-8 ovarian it was 13.7 µM. The TGI with PC-3 prostate stood at 19.9 µM; with SF-268 CNS it was 12.2 µM; in the assay with SW-620 colon, 8.48 µM; in the assay on TK-10 renal it was 26.4 µM.
With `Cc1cnc2[nH]c(-c3ccc(Cl)cc3)cc(=O)c2c1`, the TGI with A498 renal was > 100 µM; with A549 NSCLC, > 100 µM; in the assay on COLO 205 colon, > 100 µM; in the assay with HL-60(TB) leukemia, > 23.3 µM; in the assay with HOP-62 NSCLC, > 100 µM; with HOP-92 NSCLC, > 100 µM. For the same compound, the TGI is > 39.1 µM with HT29 colon; > 72.5 µM with MCF7 breast; 1.97 µM in the assay with MDA-MB-435; > 53.7 µM with MOLT-4 leukemia; > 100 µM in the assay on NCI-H460 lung; > 100 µM in the assay on NCI-H522 lung. The TGI with OVCAR-8 ovarian, with SF-268 CNS, in the assay with SW-620 colon and in the assay on TK-10 renal was > 100 µM each time.
As to `COc1nc2c(c(=O)[nH]1)N=C(c1ccc(Cl)cc1)CC(c1ccccc1)N2` (stereo not given), the TGI in the assay on A498 renal is > 100 µM; in the assay with A549 NSCLC it was > 100 µM; with COLO 205 colon, > 100 µM; with HOP-62 NSCLC, > 100 µM; in the assay with HOP-92 NSCLC it was 67.9 µM; in the assay with HT29 colon it was > 100 µM. Moreover, the TGI with MCF7 breast was > 100 µM; in the assay with MDA-MB-435 it was > 100 µM; in the assay with MOLT-4 leukemia, > 100 µM; in the assay on NCI-H460 lung, 69.3 µM; with NCI-H522 lung, 48.6 µM; with OVCAR-8 ovarian, 60.9 µM. Also, the TGI in the assay on PC-3 prostate and with SW-620 colon was > 100 µM throughout.
As to `COc1cc2c(cc1O)C(=O)O[C@@H]1CC=C3CCN(C)[C@H]3[C@H]21`, the TGI in the assay on A498 renal, with A549 NSCLC, in the assay with HOP-62 NSCLC, with HT29 colon, in the assay on MCF7 breast and with MDA-MB-435 was > 25 µM in each case. For the same compound, the TGI in the assay with MOLT-4 leukemia, in the assay with NCI-H522 lung, in the assay with OVCAR-8 ovarian, in the assay with PC-3 prostate, in the assay with SF-268 CNS and in the assay on SW-620 colon was > 25 µM each time. In the assay on TK-10 renal, the TGI was > 25 µM.
In the case of `CN1CCN(Cc2ccccc2)CC1CC#N` (stereo not given), the TGI in the assay with A498 renal, in the assay with A549 NSCLC, in the assay on COLO 205 colon, in the assay on HL-60(TB) leukemia, with HOP-62 NSCLC and in the assay on HT29 colon was > 100 µM throughout. For the same compound, the TGI in the assay with MCF7 breast, in the assay on MDA-MB-435, with MOLT-4 leukemia, in the assay with NCI-H460 lung, in the assay on OVCAR-8 ovarian and with SF-268 CNS was > 100 µM each time. Further, the TGI with SW-620 colon and in the assay on TK-10 renal was > 100 µM in each case.
With `O=C(O)CCC(NC(=O)c1ccc(CNc2nc3cc(C(F)(F)F)ccc3nc2C(=O)O)cc1)C(=O)O` (stereo not given), the TGI with A498 renal, with A549 NSCLC, with COLO 205 colon, in the assay with HL-60(TB) leukemia, with HOP-62 NSCLC and in the assay on HOP-92 NSCLC was > 100 µM each time. For the same compound, the TGI in the assay on HT29 colon, in the assay with MDA-MB-435, in the assay with MOLT-4 leukemia, in the assay with NCI-H460 lung, in the assay on NCI-H522 lung and in the assay on OVCAR-8 ovarian was > 100 µM each time. Besides, the TGI in the assay with PC-3 prostate, in the assay on SF-268 CNS, with SW-620 colon and in the assay with TK-10 renal was > 100 µM throughout.
`Cc1ccc(NC(=O)CCC(=O)C2Cc3ccccc3C2=O)cc1C` (stereo not given): the TGI in the assay with A498 renal, with A549 NSCLC, in the assay with COLO 205 colon, in the assay with HL-60(TB) leukemia, with HOP-62 NSCLC and in the assay on HOP-92 NSCLC was > 100 µM each time. Besides, the TGI with HT29 colon, in the assay with MOLT-4 leukemia, in the assay on NCI-H460 lung, in the assay on NCI-H522 lung, with OVCAR-8 ovarian and with SF-268 CNS was > 100 µM each time. The TGI in the assay on SW-620 colon and in the assay with TK-10 renal was > 100 µM throughout.
As for `Oc1ccc(/C=N/c2nccs2)c(O)c1`, the TGI with A549 NSCLC was > 100 µM; in the assay with COLO 205 colon, 92.1 µM; in the assay on HOP-62 NSCLC, > 100 µM; with HT29 colon it was > 100 µM; with MCF7 breast it was > 100 µM; with NCI-H460 lung, > 100 µM. Moreover, the TGI in the assay with NCI-H522 lung, in the assay with OVCAR-8 ovarian, with PC-3 prostate, in the assay on SF-268 CNS and in the assay with TK-10 renal was > 100 µM in each case.
For `CC1=NNC(=O)C1C1C=C(c2c[nH]c3ccccc23)OC1=O` (stereo not given), the TGI with A498 renal, in the assay on A549 NSCLC, in the assay with COLO 205 colon, in the assay with HL-60(TB) leukemia, in the assay with HOP-62 NSCLC and in the assay on HOP-92 NSCLC was > 100 µM each time. For the same compound, the TGI with HT29 colon, in the assay with MDA-MB-435, in the assay on MOLT-4 leukemia, with NCI-H460 lung, in the assay on NCI-H522 lung and with OVCAR-8 ovarian was > 100 µM each time. Moreover, the TGI in the assay with PC-3 prostate, in the assay on SF-268 CNS, in the assay on SW-620 colon and in the assay on TK-10 renal was > 100 µM throughout.

(Values after PubChem BioAssay (NCI).)
